Measurements: paper PMC9574860, “Chemical Toolkit for PARK7: Potent, Selective, and High-Throughput” (Journal of Medicinal Chemistry, 2022)

Experiments:
PARK7 [1] = biological target: T1, PARK7 (Homo sapiens, UniProt Q99497); assay: DiFMUAc PARK7 activity assay; format: biochemical; set-up: GST (N, cleaved yes); made in house; host or cells: E. coli BL21(DE3) Rosetta2; conditions: for inhibition at 12.5 µM: read-out: DiFMuAc assay %Inhibiton (12.5 µM); for inhibition at 37.5 µM: read-out: DiFMuAc assay %Inhibiton (37.5 µM); for inhibition at 100 µM: read-out: DiFMuAc assay %Inhibiton (100 µM)
T1 sequence (Q99497 1-189): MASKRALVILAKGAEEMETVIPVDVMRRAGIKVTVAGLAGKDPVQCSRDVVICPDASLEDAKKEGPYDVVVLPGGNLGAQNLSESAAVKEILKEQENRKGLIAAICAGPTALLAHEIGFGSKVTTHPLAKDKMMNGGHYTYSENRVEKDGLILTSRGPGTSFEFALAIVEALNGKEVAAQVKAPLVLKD
Experimental: Compounds were transferred using a Labcyte Echo550 acoustic dispenser to obtain a 12-point serial dilution of 0.001 to 100 μM. Next, PARK7 (15 μL, final concentration of 0.1 μM) was dispensed with a Biotek MultiFlowFX liquid dispenser and incubated for 1 h, followed by dispensing the substrate DiFMUAc (5 μL, final concentration of 300 μM). The fluorescence intensity (FI) signal was monitored with a BMG Labtech PHERAstar plate reader (λex/em 350/450 nm) for 1 h.
The validation was performed in the PBS buffer with a reaction volume of 20 μL per well in triplicate. […] Next, PARK7 (15 μL, final concentration 0.1 μM) was dispensed with a Biotek MultiFlowFX liquid dispenser and incubated for 2 h, followed by dispensing the substrate DiFMUAc (5 μL, final concentration 300 μM). The FI signal was monitored with a BMG Labtech PHERAstar plate reader (λex/em 350/450 nm) for 1 h. The increase of FI signal compared with reference controls was used to calculate the remaining enzyme activity. The inhibition percentage of these 22 compounds was plotted as a heatmap using GraphPad Prism 9.0.1 software. Color gradients indicate inhibition percentage, no inhibiton (white) and full inhibition (blue).

PARK7 [2] = biological target: T1, PARK7; assay: FP assay with Rhodamine110 probe JYQ-107 (IC50 and hit validation); format: binding; set-up: GST (N, cleaved yes); made in house; host or cells: E. coli BL21(DE3) Rosetta2; conditions: for inhibition at 12.5 µM: read-out: FP assay %Inhibiton (12.5 µM); for inhibition at 37.5 µM: read-out: FP assay %Inhibiton (37.5 µM); for inhibition at 100 µM: read-out: FP assay %Inhibiton (100 µM)
Experimental: The assay was performed using the conditions as described above with a reaction volume of 20 μL per well in triplicate. Stock solutions of JYQ-88 of 1 and 0.1 mM were prepared. […] The FP signal was monitored with a BMG Labtech PHERAstar plate reader (λex/em 480/520 nm) for 2 h.
The validation was performed using the conditions as described above with a reaction volume of 20 μL per well in triplicate. […] The FP signal was monitored with a BMG Labtech PHERAstar plate reader (λex/em 480/520 nm) for 2 h. The relative loss of FP signal compared with reference controls was used to calculate the remaining enzyme activity. Inhibition percentage of these 40 compounds was plotted as a heatmap using GraphPad Prism 9.0.1 software. Color gradients indicate inhibition percentage, no inhibiton (white) and full inhibition (blue).

[3] = 12.5 µM compound, PARK7 0.1 μM, 2 h preincubation, DiFMUAc 300 μM
[4] = 37.5 µM compound, PARK7 0.1 μM, 2 h preincubation, DiFMUAc 300 μM
[5] = 100 µM compound, PARK7 0.1 μM, 2 h preincubation, DiFMUAc 300 μM
[6] = 12.5 µM compound, PARK7 0.2 μM, 1 h preincubation, JYQ-107 20 nM
[7] = 37.5 µM compound, PARK7 0.2 μM, 1 h preincubation, JYQ-107 20 nM
[8] = 100 µM compound, PARK7 0.2 μM, 1 h preincubation, JYQ-107 20 nM

inhibition at 12.5 µM (PARK7 [1]; [3])	inhibition at 37.5 µM (PARK7 [1]; [4])	inhibition at 100 µM (PARK7 [1]; [5])	inhibition at 12.5 µM (PARK7 [2]; [6])	inhibition at 37.5 µM (PARK7 [2]; [7])	inhibition at 100 µM (PARK7 [2]; [8])	Compound	DiFMuAc assay %Inhibiton (12.5 µM) (PARK7 [1]; [3])	DiFMuAc assay %Inhibiton (37.5 µM) (PARK7 [1]; [4])	DiFMuAc assay %Inhibiton (100 µM) (PARK7 [1]; [5])	FP assay %Inhibiton (12.5 µM) (PARK7 [2]; [6])	FP assay %Inhibiton (37.5 µM) (PARK7 [2]; [7])	FP assay %Inhibiton (100 µM) (PARK7 [2]; [8])	also measured
–	–	–	–	–	–	O=C1C(=O)N(CCc2ccccc2)c2ccc(F)cc21 [STK793590, reference compound]	–	–	–	–	–	–	IC50 (PARK7 [1]; DiFMUAc assay, PARK7 0.1 μM, 1 h preincubation, DiFMUAc 300 μM): 190 nM
81.4%	94.9%	97.4%	100%	100%	100%	CCN(c1ccc(NC(=O)CCl)cc1)C(C)C [Z56896170]	–	–	–	–	–	–	–
87.1%	94.2%	100%	100%	100%	100%	CC(C)(C)c1ccc(NC(=O)CCl)cc1 [Z56922153]	–	–	–	–	–	–	–
81.8%	94.6%	97.4%	85.7%	100%	100%	CC1CCC(N(C)C(=O)CCl)CC1 (stereo not shown) [Z85923410]	–	–	–	–	–	–	–
80.5%	79.6%	91.4%	100%	100%	100%	CC1CCc2ccccc2N1C(=O)CCl (stereo not shown) [Z220564178]	–	–	–	–	–	–	–
92.2%	100%	100%	100%	100%	100%	CC1=NOC(=O)C1CC(=O)O (stereo not shown) [Z367451146]	–	–	–	–	–	–	–
–	–	–	–	–	–	O=C(CSC(F)(F)F)Nc1cccc(S(=O)(=O)F)c1 [Z1713569375]	81.4%	49.1%	97.1%	98.9%	100.0%	100.0%	–
–	–	–	–	–	–	CC(C)CC(=O)NNS(=O)(=O)c1cccc(S(=O)(=O)F)c1 [Z1764309349]	–	–	–	–	–	–	inhibition at 12.5 µM (PARK7 [1]): 94%; inhibition at 37.5 µM (PARK7 [1]): 94.6%; inhibition at 100 µM (PARK7 [1]): 94.4%; inhibition at 12.5 µM (PARK7 [2]): 100%; inhibition at 37.5 µM (PARK7 [2]): 100%; inhibition at 100 µM (PARK7 [2]): 100%
–	–	–	–	–	–	O=S(=O)(F)c1cccc(S(=O)(=O)Nc2cccnc2O)c1 [Z1764375816]	–	–	–	–	–	–	inhibition at 12.5 µM (PARK7 [1]): 97.1%; inhibition at 37.5 µM (PARK7 [1]): 99.2%; inhibition at 100 µM (PARK7 [1]): 100%; inhibition at 12.5 µM (PARK7 [2]): 100%; inhibition at 37.5 µM (PARK7 [2]): 100%; inhibition at 100 µM (PARK7 [2]): 100%
–	–	–	–	–	–	O=C(NNS(=O)(=O)c1cccc(S(=O)(=O)F)c1)C1CCC1 [Z1764398070]	–	–	–	–	–	–	inhibition at 12.5 µM (PARK7 [1]): 95.7%; inhibition at 37.5 µM (PARK7 [1]): 98%; inhibition at 100 µM (PARK7 [1]): 96.8%; inhibition at 12.5 µM (PARK7 [2]): 100%; inhibition at 37.5 µM (PARK7 [2]): 100%; inhibition at 100 µM (PARK7 [2]): 100%
–	–	–	–	–	–	CSC1(C(=O)Nc2cccc(S(=O)(=O)F)c2)CC1 [Z1832812427]	98.0%	92.6%	100.0%	98.3%	100.0%	100.0%	–
94.3%	95.5%	93.2%	100%	100%	100%	O=C(CCl)C1CCOCC1 [Z2491498268]	–	–	–	–	–	–	–
–	–	–	–	–	–	Cc1conc1NS(=O)(=O)c1cccc(S(=O)(=O)F)c1 [Z2509450956]	98.5%	98.2%	97.5%	100.0%	100.0%	100.0%	–
–	–	–	–	–	–	CC(C#N)NS(=O)(=O)c1cccc(S(=O)(=O)F)c1 (stereo not shown) [Z2509451091]	94.5%	95.2%	94.5%	100.0%	100.0%	100.0%	–
–	–	–	–	–	–	CCCc1nnc(NS(=O)(=O)c2cccc(S(=O)(=O)F)c2)o1 [Z2509455014]	–	–	–	–	–	–	inhibition at 12.5 µM (PARK7 [1]): 97.8%; inhibition at 37.5 µM (PARK7 [1]): 99.3%; inhibition at 100 µM (PARK7 [1]): 96.5%; inhibition at 12.5 µM (PARK7 [2]): 100%; inhibition at 37.5 µM (PARK7 [2]): 100%; inhibition at 100 µM (PARK7 [2]): 100%
–	–	–	–	–	–	CCn1ncnc1NS(=O)(=O)c1cccc(S(=O)(=O)F)c1 [Z2509462762]	–	–	–	–	–	–	inhibition at 12.5 µM (PARK7 [1]): 100%; inhibition at 37.5 µM (PARK7 [1]): 100%; inhibition at 100 µM (PARK7 [1]): 100%; inhibition at 12.5 µM (PARK7 [2]): 100%; inhibition at 37.5 µM (PARK7 [2]): 100%; inhibition at 100 µM (PARK7 [2]): 100%
98%	98.5%	95.9%	100%	100%	100%	O=C(CCl)c1ccc(F)c(C(=O)CCl)c1 [Z2768504793]	–	–	–	–	–	–	–
–	–	–	–	–	–	O=[N+]([O-])c1ccccc1S(=O)(=O)F [Z3223579620]	99.2%	98.3%	98.2%	100.0%	100.0%	100.0%	–
–	–	–	–	–	–	Cc1ccc(C(=O)O)cc1S(=O)(=O)F [Z3242849759]	93.6%	95.8%	93.1%	100.0%	100.0%	100.0%	–
–	–	–	–	–	–	O=[N+]([O-])c1cccc(S(=O)(=O)F)c1 [Z3243697698]	100.0%	100.0%	100.0%	100.0%	100.0%	100.0%	–
